Reference: BindingDB's records for patent US11780849 (Volastra Therapeutics, 2023)

Biological target: T1, Ectonucleotide pyrophosphatase/phosphodiesterase family member 1 (Homo sapiens, UniProt P22413)
T1 sequence (P22413 whole entry): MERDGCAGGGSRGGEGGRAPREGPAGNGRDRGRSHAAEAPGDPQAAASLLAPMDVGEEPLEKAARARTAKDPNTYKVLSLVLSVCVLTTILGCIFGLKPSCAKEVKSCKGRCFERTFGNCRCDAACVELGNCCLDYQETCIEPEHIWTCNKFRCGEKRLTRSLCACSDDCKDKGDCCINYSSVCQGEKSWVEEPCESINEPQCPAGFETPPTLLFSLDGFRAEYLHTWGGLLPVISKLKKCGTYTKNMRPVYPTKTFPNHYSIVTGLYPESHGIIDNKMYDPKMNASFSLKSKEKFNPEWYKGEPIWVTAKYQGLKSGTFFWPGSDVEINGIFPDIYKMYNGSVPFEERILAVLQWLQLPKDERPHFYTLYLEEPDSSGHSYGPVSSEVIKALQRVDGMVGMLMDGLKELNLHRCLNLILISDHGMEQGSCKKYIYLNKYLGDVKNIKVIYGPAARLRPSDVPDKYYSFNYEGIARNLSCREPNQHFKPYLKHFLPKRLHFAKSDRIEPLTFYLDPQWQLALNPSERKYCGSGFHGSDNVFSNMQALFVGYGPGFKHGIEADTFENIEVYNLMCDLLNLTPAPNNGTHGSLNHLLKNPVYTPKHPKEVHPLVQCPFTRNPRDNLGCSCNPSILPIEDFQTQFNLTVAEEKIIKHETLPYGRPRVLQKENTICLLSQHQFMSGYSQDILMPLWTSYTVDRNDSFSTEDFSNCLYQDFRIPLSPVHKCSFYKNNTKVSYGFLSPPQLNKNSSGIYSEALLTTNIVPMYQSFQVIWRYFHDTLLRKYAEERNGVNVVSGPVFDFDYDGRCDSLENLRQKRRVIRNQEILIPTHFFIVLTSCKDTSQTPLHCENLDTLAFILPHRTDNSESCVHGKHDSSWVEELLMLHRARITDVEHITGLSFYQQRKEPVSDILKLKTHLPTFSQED
Assay: Inhibition of ENPP1 Hydrolysis of 2′,3′-cGAMP
Procedure: Assay 1: Test compounds were plated in a 3 dilution scheme in a 384 well plate. […] AMP Detection solution (100 μL) was added to each well, the plate centrifuged and incubated for 60 min. Luminescence was measured with an Envision plate reader, and % Inhibition was calculated for each well as: (([max−min]−[test−min])/[max−min].

| IC50 [nM] | SMILES |
| --- | --- |
| > 1000 | COc1cccc2c(OCc3ccc(S(C)(=N)=O)cc3)ccnc12 (configuration not stated) [US11780849, Compound 134] |
| < 10 | COc1cc2nncc(N3CCC(CCS(C)(=N)=O)CC3)c2cc1OC (configuration not stated) [US11780849, Compound 151] |
| < 10 | COc1cc2nccc(-c3ccc4c(c3)CN(S(C)(=N)=O)CC4)c2cc1OC (configuration not stated) [US11780849, Compound 161] |

Further lines, the compound ahead of its results:

| SMILES | IC50 [nM] |
| --- | --- |
| COc1ccc2nccc(Oc3ccc(S(C)(=N)=O)cc3)c2n1 (configuration not stated) [US11780849, Compound 130] | > 1000 |
| COc1ccc2c(OCc3ccc(S(C)(=N)=O)cc3F)ccnc2c1 (configuration not stated) [US11780849, Compound 135] | < 10 |
| COc1cc2nccc(N3CCC(CCS(C)(=N)=O)CC3)c2cc1Cl (configuration not stated) [US11780849, Compound 141] | < 10 |
| COc1cc2nccc(N3CCC(CCS(C)(=N)=O)CC3)c2cc1F (configuration not stated) [US11780849, Compound 150] | < 10 |
